The values that follow come from patent publication US7704943B2, “Transglutaminase for inhibiting angiogenesis” (Aston University, priority 2000, dated 2010).

Experiment [1] concerns ECV304 cells. Kind of experiment: in vitro angiogenesis/tubulogenesis model, ECV304 cells co-cultured with C378 fibroblasts. It is filed as cell-based, human. The text has this: An in vitro system of angiogenesis/tubulogenesis was developed to evaluate the efficacy of TGase administration on angiogenesis. […] In the model cell system described below, ECV304 cells were co-cultured with the primary human dermal fibroblast cell line C378 (isolated from human foreskin), which provides the appropriate biochemical information to stimulate the differentiation of ECV304 to form capillary-like structures.
ECV304 cell lines S3 (a neomycin resistant transfected control cell line phenotypically similar to wild type cells) and B4 (a tTGase antisense transfected cell line [Jones, R. A., et al., 1997, J. Cell Sci. 110, 2461-2472]) and C378 were routinely cultured in Dulbecco's Modified Eagles Media (DMEM) supplemented with 2 mM glutamine and 10% (v/v) foetal calf serum (FCS). Cells were harvested by exposure to 0.25% (w/v) bovine trypsin in phosphate buffered saline (PBS) pH 7.4, and collected cells were washed in normal culture media, counted and seeded into the appropriate tissue culture vessel. Standard angiogenesis experiments were performed in 12-well cell culture plates, and 2×10^4 ECV304 cells and 2×10^4 C378 cells were seeded into 1 ml of normal growth media. For immunochemical staining experiment, 2×10^3 cells of each cell type were seeded into […] of growth medium in 8-well glass chamber slides. Co-cultures were incubated at 37° C. in a humidified atmosphere containing 5% (V/V) CO2, and tubules were allowed to develop spontaneously over a 14-day period, with regular changes of growth media every 72 hours.
For cultures treated with purified tTGase, a dose response with 1, 10 and 50 μg […] liver transglutaminase (gplTGase) was performed with two separate dosing regimes. gplTGase was activated by pre-incubation with 10 mM DTT on ice for one hour prior to its addition to cultures. The highest amount of DTT present in the cultures was 0.5 mm for the 50 μg gplTGase treatment, and control cultures were treated with DTT accordingly. In some experiments, cultures were treated with two administrations of exogenous enzyme on day 1 and day 4 of the experiment. Further studies extended the dose regime to include five gplTGase treatments, on days 1, 4, 7, 10 and 13.
Non-specific protein binding was blocked by incubating fixed cells with 300 μl of 3% (w/v) bovine serum albumin (BSA) overnight at 4° C. Blocked plates were then incubated with the primary antisera (see table 5), diluted in the above buffer, for 2 hours at 37° C. with gentle shaking. Next, plates were washed three times and incubated with the appropriate species-specific secondary antibody (see table 5) conjugated to Horseradish peroxidase (HRP) for 2 hours at 37° C. with gentle shaking. […]

The subject of experiment [2] is rat dermal wound. As to conditions: addition of exogenous enzyme, rat dermal wound healing; cited from earlier work.

As for `Cc1ccc(C(=O)Nc2ccc(S(=O)(=O)O)c3cc(S(=O)(=O)O)cc(S(=O)(=O)O)c23)cc1NC(=O)c1cccc(NC(=O)Nc2cccc(C(=O)Nc3cc(C(=O)Nc4ccc(S(=O)(=O)O)c5cc(S(=O)(=O)O)cc(S(=O)(=O)O)c45)ccc3C)c2)c1` [suramin], in experiment [1] (10 μM, compared to untreated cells), the “microtubule formation (collagen type I, UEA-1 and tTGase staining)” value was “significantly reduced”. The microtubule formation entry in experiment [1] (100 μM) and in experiment [1] (200 μM) was “completely eradicated” in each case. The “angiogenesis (FIG. 4, tubules stained for collagen type I, UEA-1, tTGase)” value in experiment [1] (standard angiogenesis inhibitor, positive control) was “inhibition of angiogenesis”.

B1: recombinant tTGase: exogenous recombinant tissue transglutaminase used in the study of Haroon et al 1999 (protein, UniProt P21980 2-687, looked up)
Protein-glutamine …: AEELVLERCDLELETNGRDHHTADLCREKLVVRRGQPFWLTLHFEGRNYEASVDSLTFSVVTGPAPSQEAGTKARFPLRDAVEEGDWTATVVDQQDCTLSLQLTTPANAPIGLYRLSLEASTGYQGSSFVLGHFILLFNAWCPADAVYLDSEEERQEYVLTQQGFIYQGSAKFIKNIPWNFGQFEDGILDICLILLDVNPKFLKNAGRDCSRRSSPVYVGRVVSGMVNCNDDQGVLLGRWDNNYGDGVSPMSWIGSVDILRRWKNHGCQRVKYGQCWVFAAVACTVLRCLGIPTRVVTNYNSAHDQNSNLLIEYFRNEFGEIQGDKSEMIWNFHCWVESWMTRPDLQPGYEGWQALDPTPQEKSEGTYCCGPVPVRAIKEGDLSTKYDAPFVFAEVNADVVDWIQQDDGSVHKSINRSLIVGLKISTKSVGRDEREDITHTYKYPEGSSEEREAFTRANHLNKLAEKEETGMAMRIRVGQSMNMGSDFDVFAHITNNTAEEYVCRLLLCARTVSYNGILGPECGTKYLLNLNLEPFSEKSVPLCILYEKYRDCLTESNLIKVRALLVEPVINSYLLAERDLYLENPEIKIRILGEPKQKRKLVAEVSLQNPLPVALEGCTFTVEGAGLTEEQKTVEIPDPVEAGEEVKVRMDLLPLHMGLHKLVVNFESDKLKAVKGFRNVIIGPA
With B1, the vessel length density entry in experiment [2] is reported as “increase in vessel length density”.
